Test results published in patent US9867795B2, “Nitrated lipids and methods of making and using thereof” (The UAB Research Foundation, priority 2004, dated 2018).
“Also recorded” adds a separate entry of the source.

Experiments:
hPPARγ = target: T1, hPPARγ (Homo sapiens, UniProt P37231); test: CV-1 PPRE×3 TK-Luciferase transient transfection assay; assay type: cell-based; settings: GW9662 added 1 hr prior to nitrated fatty acid
T1 construct: For assessing full-length PPAR receptors, CV-1 cells were transiently co-transfected; expressed in transfected cells; host or cells: CV-1 cells
T1 sequence (P37231 1-505): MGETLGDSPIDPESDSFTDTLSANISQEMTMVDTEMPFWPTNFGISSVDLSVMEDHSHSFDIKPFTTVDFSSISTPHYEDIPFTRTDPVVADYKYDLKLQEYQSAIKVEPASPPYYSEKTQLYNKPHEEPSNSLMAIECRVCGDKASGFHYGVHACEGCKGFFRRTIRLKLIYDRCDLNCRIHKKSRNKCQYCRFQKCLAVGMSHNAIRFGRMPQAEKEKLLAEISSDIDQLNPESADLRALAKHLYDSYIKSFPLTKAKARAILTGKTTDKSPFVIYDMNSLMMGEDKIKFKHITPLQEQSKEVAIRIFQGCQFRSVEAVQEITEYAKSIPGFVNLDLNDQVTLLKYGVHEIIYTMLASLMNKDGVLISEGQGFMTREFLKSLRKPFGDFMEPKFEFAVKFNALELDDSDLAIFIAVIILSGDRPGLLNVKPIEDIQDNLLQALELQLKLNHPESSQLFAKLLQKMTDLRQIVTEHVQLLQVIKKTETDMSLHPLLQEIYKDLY
Text: Cell Transient Transfection Assay. […] Then, cells were transiently co-transfected with a plasmid containing the luciferase gene under regulation by four Gal4 DNA binding elements (UASG×4 TK-Luciferase, a gift from Dr. Ronald M. Evans), in concert with plasmids containing the ligand binding domain for the different nuclear receptors fused to the Gal4 DNA binding domain. For assessing full-length PPAR receptors, CV-1 cells were transiently co-transfected with a plasmid containing the luciferase gene under the control of three tandem PPAR response elements (PPRE) (PPRE×3 TK-Luciferase) and hPPARγ, hPPARα or hPPARδ expression plasmids, respectively. In all cases, fluorescence protein (GFP) expression plasmid was co-transfected as the control for the transfection efficiency. Twenty-four hours after the transfection, cells were cultured for another 24 hours in Optium-MEM (Invitrogen, Carlsbad, Calif.). Then, cells were treated with different compounds as indicated in figures for 24 hours in Optium-MEM. Reporter luciferase assay kits from Promega (Madison, Wis.) were used to measure the luciferase activity according to the manufacturer's instructions with a luminometer (Victor II, Perkin-Elmer). Luciferase activity was normalized by GFP units. Each condition was performed at least in triplicates in each experiment.
PPAR transient transfection assay. […] Twelve hours before transfection, the media was removed and antibiotic-free media was applied. Cells were transiently co-transfected with a plasmid containing the luciferase gene under the control of three tandem PPAR response elements (PPRE) (PPRE×3 TK-Luciferase) and PPARγ, PPARα or PPARδ expression plasmids, respectively. In all cases, fluorescence protein (GFP) expression plasmid was co-transfected as the control for transfection efficiency. Twenty-four hours after transfection, cells the returned to OptiMEM (Invitrogen, Carlsbad, Calif.) for 24 hr and then treated as indicated for another 24 hr. Reporter luciferase assay kits from Promega (Madison, Wis.) were used to measure the luciferase activity according to the manufacturer's instructions with a luminometer (Victor II, Perkin-Elmer). Luciferase activity was normalized by GFP units. Each condition was performed in triplicate in each experiment (n>3).

[1] = system: mouse RAW264.7 macrophages; test: CD36 expression in macrophages (immunoblot, real-time PCR); settings: GW9662 added 1 h prior to treatment
3T3-L1 adipocytes = test: [^3H]-2-Deoxy-D-glucose uptake assay in differentiated 3T3-L1 adipocytes; assay type: cell-based; settings: GW9662 added 1 h before nitrated lipids or Rosiglitazone
Method: [^3H]-2-Deoxy-D-glucose Uptake Assay in Differentiated 3T3-L1 Adipocyte. [^3H]-2-Deoxy-D-glucose uptake assay as previously described (19) 3T3-L1 preadipocytes were grown in 24-well tissue culture plates, 2-day postconfluent preadipocytes were treated by 10 μg/ml insulin (Sigma), 1 μM dexamethasone (Sigma), and 0.5 mM 3-isobutyl-1-methylxanthine (Sigma) in DMEM containing 10% FBS for two days, then cells were kept in 10 μg/ml insulin also in DMEM containing 10% FBS for 6 days (changed medium every three days). Eight days after induction of adipogenesis, test compounds in DMEM containing 10% FBS were added for an additional 2 days (changed medium every day) and PPARγ-specific antagonist GW9662 were pretreated 1 h before other additions. After two rinses with serum-free DMEM, cells were incubated for 3 h in serum-free DMEM and rinsed at room temperature three times with freshly prepared KRPH buffer (5 mM phosphate buffer, 20 mM HEPES, 1 mM MgSO4, 1 mM CaCl2, 136 mM NaCl, 4.7 mM KCl, pH 7.4). The buffer was replaced with 1 μCi/ml of [^3H]-2-deoxy-D-glucose in KRPH buffer for 10 min at room temperature. The treated cells were rinsed carefully three times with cold PBS, lysed overnight in 0.8N NaOH (0.4 ml/well), and neutralized with […] of 12N HCl. Lysate (360 μl) was added to 4 ml Scinti-Safe Plus TM 50% in a scintillation vial, and the vials were mixed and counted.
[^3H]-2-Deoxy-D-glucose uptake assay in differentiated 3T3-L1 adipocytes. [^3H]-2-deoxy-D-glucose uptake was analyzed as previously (23). […] Cells were then rinsed three times with cold PBS, lysed overnight in 0.8 N NaOH (0.4 ml/well), neutralized with 26.6 μl of 12 N HCl and 360 μl of lysate was added into 4 ml Scinti-Safe Plus™ 50% for radioactivity determination by liquid scintillation counting.

O=C(Nc1ccccc1)c1cc([N+](=O)[O-])ccc1Cl [GW9662, reference compound]
effect of GW9662 on nitrated fatty acid-mediated PPARγ activation (hPPARγ): inhibited in a dose-dependent manner; also recorded: partially inhibited; also recorded: partially yet significantly blocked | effect of GW9662 on LNO2-induced CD36 expression [1]: partially inhibitable | effect of GW9662 on induced glucose uptake (3T3-L1 adipocytes): partially inhibited; also recorded: significantly inhibited
